65 compounds from patent US20250064789A1, “KETOAMIDE DERIVATIVES AND PHARMACEUTICAL USES THEREOF” (priority 2022, published 2025) can be followed below.

Structures are written as SMILES.

The first experiment concerns the target recombinant SARS-CoV-2 M^pro (Severe acute respiratory syndrome coronavirus 2 (2019-nCoV) (SARS-CoV-2), UniProt P0DTD1). As to the kind of experiment: Inhibition of SARS-CoV-2 M^pro enzyme activity (fluorescent substrate assay). Type of experiment: biochemical. The settings on record: inhibition of SARS-CoV-2 M^pro enzyme activity; values given in μM; read-out: IC50.
Consider `O=C(NCc1nccs1)C(=O)[C@@H](Cc1ccccc1)NC(=O)c1ccccc1` [Compound 454], for which the 50% inhibitory concentration (IC50) (as a rule, the concentration at which inhibition is half-maximal) amounted to 1.3 ± 0.07 µM.

Turning to `O=C(NCc1cccs1)C(=O)[C@@H](Cc1ccccc1)NC(=O)c1ccccc1` [Compound 455], the half-inhibitory concentration (IC50) is 77.3 ± 2.31 µM.

Take `O=C(NCc1ccco1)C(=O)[C@@H](Cc1ccccc1)NC(=O)c1ccccc1` [Compound 456]: the 50% inhibitory concentration (IC50) turned out to be 37.2 ± 0.51 µM.

Regarding `O=C(NCc1ncco1)C(=O)[C@@H](Cc1ccccc1)NC(=O)c1ccccc1` [Compound 457], the IC50 amounted to 51.5 ± 0.94 µM.

With `O=C(NCc1cocn1)C(=O)[C@@H](Cc1ccccc1)NC(=O)c1ccccc1` [Compound 458], the IC50 was 11.4 ± 0.08 µM.

In the case of `O=C(NCc1ccon1)C(=O)[C@@H](Cc1ccccc1)NC(=O)c1ccccc1` [Compound 459], the 50% inhibitory concentration (IC50) turned out to be 54.74 ± 0.35 µM.

For the compound `O=C(NCc1ncon1)C(=O)[C@@H](Cc1ccccc1)NC(=O)c1ccccc1` [Compound 460], the IC50 stood at 53.1 ± 3.34 µM.

As for `O=C(NCc1ncno1)C(=O)[C@@H](Cc1ccccc1)NC(=O)c1ccccc1` [Compound 461], the IC50 is 62.3 ± 2.07 µM.

`Cc1csc(CNC(=O)C(=O)[C@@H](Cc2ccccc2)NC(=O)c2ccccc2)n1` [Compound 462]: the IC50 was determined as 40.7 ± 1.5 µM.

On to `O=C(NCc1cnc(Cl)s1)C(=O)[C@@H](Cc1ccccc1)NC(=O)c1ccccc1` [Compound 463], for which the half-maximal inhibitory concentration (IC50) turned out to be 95.2 ± 5.99 µM.

As for `O=C(NCc1nccs1)C(=O)[C@@H](Cc1ccccc1F)NC(=O)c1ccccc1` [Compound 464], the half-maximal inhibitory concentration (IC50) was found to be 3.5 ± 0.23 µM.

Turning to `O=C(NCc1nccs1)C(=O)[C@@H](Cc1cccc(F)c1)NC(=O)c1ccccc1` [Compound 465], the IC50 is 2.55 ± 0.02 µM.

On to `O=C(NCc1nccs1)C(=O)[C@@H](Cc1ccc(F)cc1)NC(=O)c1ccccc1` [Compound 466], for which the IC50 was found to be 1.95 ± 0.29 µM.

As to `O=C(NCc1nccs1)C(=O)[C@@H](Cc1cc(F)c(F)cc1F)NC(=O)c1ccccc1` [Compound 467], the IC50 stood at 3.37 ± 0.18 µM.

`O=C(NCc1nccs1)C(=O)[C@@H](CC1CCCCC1)NC(=O)c1ccccc1` [Compound 468]: the half-inhibitory concentration (IC50) came to 10.5 ± 0.63 µM.

Take `O=C(NCc1nccs1)C(=O)[C@@H](Cc1cccc(Cl)c1)NC(=O)c1ccccc1` [Compound 469]: the IC50 worked out at 1.43 ± 0.15 µM.

As for `O=C(NCc1nccs1)C(=O)[C@@H](Cc1ccc(Cl)c(Cl)c1)NC(=O)c1ccccc1` [Compound 470], the IC50 was 2.03 ± 0.07 µM.

Consider `O=C(NCc1nccs1)C(=O)[C@@H](Cc1ccccc1)NC(=O)c1ccc(F)cc1` [Compound 473], for which the IC50 stood at 1.31 ± 0.1 µM.

As to `O=C(CCc1ccccc1)N[C@H](Cc1ccccc1)C(=O)C(=O)NCc1nccs1` [Compound 475], the IC50 came to 1.22 ± 0.1 µM.

On to `O=C(CNC(=O)c1ccccc1)N[C@H](Cc1ccccc1)C(=O)C(=O)NCc1nccs1` [Compound 477], for which the half-maximal inhibitory concentration (IC50) was found to be 1.86 ± 0.04 µM.

For `O=C(CNC(=O)c1cnccn1)N[C@H](Cc1ccccc1)C(=O)C(=O)NCc1nccs1` [Compound 478], the IC50 is 3.62 ± 0.27 µM.

`O=C(CNC(=O)c1ccccn1)N[C@H](Cc1ccccc1)C(=O)C(=O)NCc1nccs1` [Compound 479]: the IC50 is 2.24 ± 0.1 µM.

As for `O=C(CNC(=O)c1cccnc1)N[C@H](Cc1ccccc1)C(=O)C(=O)NCc1nccs1` [Compound 480], the IC50 amounted to 2.23 ± 0.37 µM.

As for `O=C(NCc1nccs1)C(=O)[C@@H](Cc1ccccc1)NC(=O)c1cnn(Cc2cc(F)c(F)cc2F)c1` [Compound 490], the concentration for half-maximal inhibition (IC50) amounted to 5.21 ± 0.72 µM.

As for `O=C(Cn1cc(-c2ccc(OC(F)(F)F)cc2)cn1)N[C@H](Cc1ccccc1)C(=O)C(=O)NCc1nccs1` [Compound 495], the IC50 was determined as 2.27 ± 0.09 µM.

The same experiment, now with this note: inhibition of SARS-CoV-2 M^pro enzyme activity; values in nM; read-out: IC50.
As for `O=C(CNC(=O)c1ccc(F)c(Cl)c1)N[C@H](Cc1ccccc1)C(=O)C(=O)NCc1ccccn1` [Compound 441], the IC50 was 0.0185 ± 0.0003 µM.

Consider `N#Cc1cc(F)cc(C(=O)NCC(=O)N[C@H](Cc2ccccc2)C(=O)C(=O)NCc2ccccn2)c1` [Compound 442], for which the concentration for half-maximal inhibition (IC50) came out at 0.0206 ± 0.001 µM.

`N#Cc1ccc(C(=O)NCC(=O)N[C@H](Cc2ccccc2)C(=O)C(=O)NCc2ccccn2)cc1F` [Compound 443]: the half-maximal inhibitory concentration (IC50) stood at 0.168 ± 0.0019 µM.

For the compound `O=C(CNC(=O)c1cc2ccccc2o1)N[C@H](Cc1ccccc1)C(=O)C(=O)NCc1ccccn1` [Compound 444], the IC50 was determined as 0.2143 ± 0.0012 µM.

Turning to `O=C(CNC(=O)C1CCCCC1)N[C@H](Cc1ccccc1)C(=O)C(=O)NCc1ccccn1` [Compound 445], the IC50 was 0.0218 ± 0.0003 µM.

Regarding `O=C(CNC(=O)C1CCOCC1)N[C@H](Cc1ccccc1)C(=O)C(=O)NCc1ccccn1` [Compound 446], the IC50 came to 0.4141 ± 0.0018 µM.

Turning to `O=C(CNC(=O)C1CCC(F)(F)CC1)N[C@H](Cc1ccc(Cl)cc1)C(=O)C(=O)NCc1ccccn1` [Compound 447], the IC50 was determined as 0.1873 ± 0.0011 µM.

For `O=C(CNC(=O)C1CCC(F)(F)CC1)N[C@H](Cc1cccc(Cl)c1)C(=O)C(=O)NCc1ccccn1` [Compound 448], the IC50 came to 0.0599 ± 0.0005 µM.

Turning to `O=C(CNC(=O)C1CCC(F)(F)CC1)N[C@H](Cc1ccccc1Cl)C(=O)C(=O)NCc1ccccn1` [Compound 449], the IC50 was determined as 0.0453 ± 0.0012 µM.

Turning to `O=C(CNC(=O)C1CCC(F)(F)CC1)N[C@H](Cc1ccc(Cl)cc1Cl)C(=O)C(=O)NCc1ccccn1` [Compound 450], the half-maximal inhibitory concentration (IC50) came to 0.0454 ± 0.0002 µM.

Regarding `O=C(CNC(=O)C1CCC(F)(F)CC1)N[C@H](Cc1ccc(Cl)cc1Cl)C(=O)C(=O)NCc1ccccn1` [Compound 451], the concentration for half-maximal inhibition (IC50) is 0.0344 ± 0.0018 µM.

As for `C[C@H](NC(=O)C1CCC(F)(F)CC1)C(=O)N[C@H](Cc1ccccc1)C(=O)C(=O)NCc1ccccn1` [Compound 452], the IC50 was 0.0662 ± 0.0009 µM.

As to `O=C(NCc1ccccn1)C(=O)[C@@H](Cc1ccccc1)NC(=O)[C@@H]1CC(F)(F)CN1C(=O)[C@@H]1C[C@@H]2[C@H](C1)C2(F)F` [Compound 453], the IC50 was found to be 0.0372 ± 0.0002 µM.

For `O=C(NCc1nccs1)C(=O)[C@@H](Cc1ccccc1)NC(=O)c1ccccc1F` [Compound 471], the half-maximal inhibitory concentration (IC50) amounted to 0.264 ± 0.004 µM.

Take `O=C(NCc1nccs1)C(=O)[C@@H](Cc1ccccc1)NC(=O)c1cccc(F)c1` [Compound 472]: the IC50 worked out at 0.478 ± 0.0048 µM.

Regarding `O=C(Cc1ccccc1)N[C@H](Cc1ccccc1)C(=O)C(=O)NCc1nccs1` [Compound 474], the half-maximal inhibitory concentration (IC50) worked out at 0.949 ± 0.0399 µM.

On to `O=C(COc1ccccc1)N[C@H](Cc1ccccc1)C(=O)C(=O)NCc1nccs1` [Compound 476], for which the 50% inhibitory concentration (IC50) came to 0.8808 ± 0.0012 µM.

With `O=C(CNC(=O)c1ccccc1F)N[C@H](Cc1ccccc1)C(=O)C(=O)NCc1nccs1` [Compound 481], the IC50 came to 0.9983 ± 0.0002 µM.

As for `O=C(CNC(=O)c1cccc(F)c1)N[C@H](Cc1ccccc1)C(=O)C(=O)NCc1nccs1` [Compound 482], the IC50 was 0.5382 ± 0.0043 µM.

As for `O=C(CNC(=O)c1ccc(F)cc1)N[C@H](Cc1ccccc1)C(=O)C(=O)NCc1nccs1` [Compound 483], the IC50 turned out to be 0.3384 ± 0.003 µM.

With `CC(C)(OCc1ccc(F)cc1)C(=O)N[C@H](Cc1ccccc1)C(=O)C(=O)NCc1nccs1` [Compound 484], the IC50 was 0.0957 ± 0.0015 µM.

On to `CC(C)(OCc1ccc(Cl)cc1)C(=O)N[C@H](Cc1ccccc1)C(=O)C(=O)NCc1nccs1` [Compound 485], for which the IC50 was found to be 0.0333 ± 0.0017 µM.

Regarding `O=C(Cn1cc(-c2ccccc2)cn1)N[C@H](Cc1ccccc1)C(=O)C(=O)NCc1nccs1` [Compound 491], the IC50 stood at 0.216 ± 0.0073 µM.

`O=C(Cn1cc(-c2cccc(F)c2)cn1)N[C@H](Cc1ccccc1)C(=O)C(=O)NCc1nccs1` [Compound 492]: the IC50 was 0.0663 ± 0.0061 µM.

As for `O=C(Cn1cc(-c2ccc(F)nc2)cn1)N[C@H](Cc1ccccc1)C(=O)C(=O)NCc1nccs1` [Compound 493], the half-maximal inhibitory concentration (IC50) stood at 0.4515 ± 0.0023 µM.

For `O=C(Cn1cc(-c2cccc(OC(F)(F)F)c2)cn1)N[C@H](Cc1ccccc1)C(=O)C(=O)NCc1nccs1` [Compound 494], the IC50 amounted to 0.0825 ± 0.0037 µM.

Turning to `N#Cc1cccc(-c2cnn(CC(=O)N[C@H](Cc3ccccc3)C(=O)C(=O)NCc3nccs3)c2)c1` [Compound 496], the IC50 came to 0.077 ± 0.0041 µM.

`O=C(Cn1cc(-c2ccc(F)c(Cl)c2)cn1)N[C@H](Cc1ccccc1)C(=O)C(=O)NCc1nccs1` [Compound 497]: the IC50 turned out to be 0.036 ± 0.0024 µM.

Take `O=C(Cn1cc(-c2ccc(F)c(C(F)(F)F)c2)cn1)N[C@H](Cc1ccccc1)C(=O)C(=O)NCc1nccs1` [Compound 498]: the IC50 worked out at 0.103 ± 0.0053 µM.

In the case of `Cc1nn(CC(=O)N[C@H](Cc2ccccc2)C(=O)C(=O)NCc2nccs2)c(C)c1-c1ccc(F)c(Cl)c1` [Compound 499], the half-maximal inhibitory concentration (IC50) is 0.0329 ± 0.0015 µM.

With `O=C(Cn1cc(-c2ccc(F)c(Cl)c2)c(C(F)(F)F)n1)N[C@H](Cc1ccccc1)C(=O)C(=O)NCc1nccs1` [Compound 500], the IC50 is 0.0389 ± 0.0005 µM.

In the case of `O=C(Cn1cc(-c2cc(F)cc(F)c2)cn1)N[C@H](Cc1ccccc1)C(=O)C(=O)NCc1nccs1` [Compound 502], the 50% inhibitory concentration (IC50) was determined as 0.047 ± 0.0005 µM.

Turning to `O=C(Cn1cc(-c2cc(F)c(F)c(F)c2)cn1)N[C@H](Cc1ccccc1)C(=O)C(=O)NCc1nccs1` [Compound 504], the IC50 is 0.0477 ± 0.0009 µM.

For the compound `O=C(Cn1cc(-c2c(F)ccc(F)c2F)cn1)N[C@H](Cc1ccccc1)C(=O)C(=O)NCc1nccs1` [Compound 505], the 50% inhibitory concentration (IC50) was 0.239 ± 0.004 µM.

For `O=C(Cn1cc(-c2cc(F)c(F)cc2F)cn1)N[C@H](Cc1ccccc1)C(=O)C(=O)NCc1nccs1` [Compound 506], the IC50 turned out to be 0.105 ± 0.0029 µM.

Turning to `O=C(Cn1cc(-c2cc(F)ccc2F)cn1)N[C@H](Cc1ccccc1)C(=O)C(=O)NCc1nccs1` [Compound 507], the concentration for half-maximal inhibition (IC50) was found to be 0.0126 ± 0.0004 µM.

As to `Cc1nn(CC(=O)N[C@H](Cc2ccccc2)C(=O)C(=O)NCc2nccs2)c(C)c1C1CCC(F)(F)CC1` [Compound 509], the concentration for half-maximal inhibition (IC50) is 0.151 ± 0.0066 µM.

In the case of `O=C(Cn1cc(C2CCC(F)(F)CC2)c(C(F)(F)F)n1)N[C@H](Cc1ccccc1)C(=O)C(=O)NCc1nccs1` [Compound 510], the IC50 came to 0.137 ± 0.0016 µM.

For `O=C(Cc1csc(C2CCC(F)(F)CC2)n1)N[C@H](Cc1ccccc1)C(=O)C(=O)NCc1nccs1` [Compound 511, (R)-3-(2-(2-(4,4-difluorocyclohexyl)thiazole-4-yl)acetamido)-2-oxo-4-phenyl-N-(thiazole-2-ylmethyl)butyramide], the concentration for half-maximal inhibition (IC50) came to 0.0304 ± 0.0021 µM.

Take `O=C(NCc1nccs1)C(=O)[C@@H](Cc1ccccc1)NC(=O)C1(n2ccc(C3CCC(F)(F)CC3)n2)CC1` [Compound 512]: the IC50 amounted to 0.0221 ± 0.0005 µM.
